Test results taken from the Kinase Knowledgebase extract (Sharma et al. 2016).

molecular target: EGFR (UniProt P00533)
Sequence (P00533 whole entry, looked up): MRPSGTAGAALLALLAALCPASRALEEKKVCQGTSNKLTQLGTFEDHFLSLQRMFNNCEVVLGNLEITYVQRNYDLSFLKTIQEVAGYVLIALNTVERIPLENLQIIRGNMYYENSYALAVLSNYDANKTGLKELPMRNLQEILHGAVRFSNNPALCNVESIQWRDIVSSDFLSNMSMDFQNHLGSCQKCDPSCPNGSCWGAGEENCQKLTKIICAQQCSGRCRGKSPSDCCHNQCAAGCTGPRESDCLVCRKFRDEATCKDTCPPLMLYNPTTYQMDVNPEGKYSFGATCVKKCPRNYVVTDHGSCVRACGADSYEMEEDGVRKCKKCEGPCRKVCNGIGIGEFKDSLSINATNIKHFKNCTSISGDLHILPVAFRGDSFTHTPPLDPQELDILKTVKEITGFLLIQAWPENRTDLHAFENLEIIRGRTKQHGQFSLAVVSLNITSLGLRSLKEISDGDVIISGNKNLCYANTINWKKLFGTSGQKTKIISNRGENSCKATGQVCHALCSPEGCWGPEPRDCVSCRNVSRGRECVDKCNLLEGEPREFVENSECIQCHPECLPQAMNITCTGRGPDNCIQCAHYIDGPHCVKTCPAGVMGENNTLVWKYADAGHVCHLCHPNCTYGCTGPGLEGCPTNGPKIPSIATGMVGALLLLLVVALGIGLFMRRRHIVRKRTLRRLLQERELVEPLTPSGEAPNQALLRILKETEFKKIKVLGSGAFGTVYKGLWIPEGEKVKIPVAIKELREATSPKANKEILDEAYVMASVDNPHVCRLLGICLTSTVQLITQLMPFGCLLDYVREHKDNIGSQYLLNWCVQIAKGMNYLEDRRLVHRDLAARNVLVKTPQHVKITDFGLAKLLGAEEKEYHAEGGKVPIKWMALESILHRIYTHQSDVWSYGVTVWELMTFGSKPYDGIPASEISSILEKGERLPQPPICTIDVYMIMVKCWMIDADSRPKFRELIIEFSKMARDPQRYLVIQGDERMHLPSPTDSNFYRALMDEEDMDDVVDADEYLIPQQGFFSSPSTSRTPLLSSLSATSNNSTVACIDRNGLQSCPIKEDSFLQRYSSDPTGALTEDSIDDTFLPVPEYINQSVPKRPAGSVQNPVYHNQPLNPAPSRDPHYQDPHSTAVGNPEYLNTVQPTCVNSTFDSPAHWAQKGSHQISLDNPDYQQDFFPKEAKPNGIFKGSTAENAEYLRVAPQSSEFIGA

Row | SMILES | IC50
1 | O=C(O)C(=O)Nc1csc2ccccc2c1=O | > 100 µM
2 | O=C(O)C(=O)Nc1cc(=O)c2ccccc2s1 | > 100 µM
3 | O=C(CCO)Nc1csc2ccccc2c1=O | > 100 µM
4 | CCNC(=O)Nc1csc2ccc(C)cc2c1=O | > 100 µM
5 | CCNC(=O)Nc1csc2ccc(OC)cc2c1=O | > 100 µM
6 | COC(=O)C(=O)Nc1csc2ccccc2c1=O | > 100 µM
7 | O=c1cc(-c2ccccc2)oc2ccccc12 | 50 µM
8 | CCNC(=O)Nc1csc2ccc(F)cc2c1=O | > 100 µM
9 | CCC(=O)Nc1csc2ccccc2c1=O | > 100 µM
10 | CCNC(=O)NC1=CS(=O)(=O)c2ccccc2C1=O | > 100 µM
11 | CCOC(=O)NC(=O)Nc1csc2ccccc2c1=O | > 100 µM
12 | O=c1cc(-c2ccc(O)cc2)oc2cc(O)cc(O)c12 | 25 µM

The remaining lines, values ahead:

Row | IC50 | SMILES
13 | > 100 µM | CCCCNC(=O)Nc1csc2ccccc2c1=O
14 | > 100 µM | CC(C)NC(=O)Nc1coc2ccccc2c1=O
15 | > 100 µM | CCNC(=O)Nc1coc2ccccc2c1=O
16 | > 100 µM | CN(C)Cc1coc2ccccc2c1=O
17 | > 100 µM | CN(C)C(=O)Nc1coc2ccccc2c1=O
18 | > 100 µM | CCNC(=O)Nc1csc2ccccc2c1=O
19 | > 100 µM | CNC(=O)Nc1csc2ccccc2c1=O
20 | > 100 µM | CC(C)(C)NC(=O)Nc1coc2ccccc2c1=O
21 | > 100 µM | CNC(=O)Nc1coc2ccccc2c1=O
22 | > 100 µM | CCCCNC(=O)Nc1coc2ccccc2c1=O
